Assay results: ChEMBL document CHEMBL4495564, “Identification of inhibitors of SARS-Cov2 M-Pro enzymatic activity using a small molecule repurposing screen” (2020)
Several values for one entry are separate records, joined by “and”; a condition that tells them apart may be missing. Equal values may be shown once. Where a name gives a salt, the structure may show the parent alone.

Experiments:
[1] = molecular target: Replicase polyprotein 1ab (Middle East respiratory syndrome-related coronavirus (isolate UnitedKingdom/H123990006/2012) (Betacoronavirus England 1) (Humancoronavirus EMC), UniProt K9N7C7); experiment: biochemical; format: functional
[2] = molecular target: Replicase polyprotein 1ab (Middle East respiratory syndrome-related coronavirus (isolate UnitedKingdom/H123990006/2012) (Betacoronavirus England 1) (Humancoronavirus EMC)) (UniProt K9N7C7); conditions: at 10 µM
[3] = molecular target: Chymotrypsin (Homo sapiens) (UniProt Q99895+P17538+P40313+Q6GPI1); experiment: Chymotrypsin inhibition percentage at 10 µM by FRET kind of response from peptide substrate; format: functional
[4] = molecular target: Replicase polyprotein 1ab (Severe acute respiratory syndrome coronavirus 2, UniProt P0DTD1); experiment: biochemical; format: functional

Chymotrypsin (Homo sapiens), sequence (Q6GPI1 whole entry, looked up, chain 1 of 4): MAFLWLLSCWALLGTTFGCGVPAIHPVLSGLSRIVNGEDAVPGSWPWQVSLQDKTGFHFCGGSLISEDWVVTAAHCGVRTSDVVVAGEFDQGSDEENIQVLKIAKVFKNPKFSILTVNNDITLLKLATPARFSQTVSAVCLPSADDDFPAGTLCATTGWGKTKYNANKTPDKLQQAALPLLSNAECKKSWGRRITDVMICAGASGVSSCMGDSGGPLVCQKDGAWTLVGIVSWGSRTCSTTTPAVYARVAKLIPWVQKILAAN
Chymotrypsin (Homo sapiens), sequence (P40313 whole entry, looked up, chain 2 of 4): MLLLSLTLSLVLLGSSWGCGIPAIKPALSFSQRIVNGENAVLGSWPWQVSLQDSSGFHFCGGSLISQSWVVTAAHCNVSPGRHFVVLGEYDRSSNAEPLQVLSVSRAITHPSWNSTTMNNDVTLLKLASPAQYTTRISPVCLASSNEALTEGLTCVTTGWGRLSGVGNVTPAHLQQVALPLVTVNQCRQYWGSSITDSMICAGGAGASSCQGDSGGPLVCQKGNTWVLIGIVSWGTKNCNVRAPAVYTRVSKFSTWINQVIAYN
Chymotrypsin (Homo sapiens), sequence (P17538 whole entry, looked up, chain 3 of 4): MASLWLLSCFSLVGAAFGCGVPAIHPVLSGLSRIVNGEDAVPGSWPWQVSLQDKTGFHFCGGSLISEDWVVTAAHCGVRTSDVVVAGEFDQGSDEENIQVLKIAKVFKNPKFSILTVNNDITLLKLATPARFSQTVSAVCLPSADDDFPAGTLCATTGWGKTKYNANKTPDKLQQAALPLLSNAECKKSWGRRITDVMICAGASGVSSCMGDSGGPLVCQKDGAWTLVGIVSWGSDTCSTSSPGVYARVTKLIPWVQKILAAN
Chymotrypsin (Homo sapiens), sequence (Q99895 whole entry, looked up, chain 4 of 4): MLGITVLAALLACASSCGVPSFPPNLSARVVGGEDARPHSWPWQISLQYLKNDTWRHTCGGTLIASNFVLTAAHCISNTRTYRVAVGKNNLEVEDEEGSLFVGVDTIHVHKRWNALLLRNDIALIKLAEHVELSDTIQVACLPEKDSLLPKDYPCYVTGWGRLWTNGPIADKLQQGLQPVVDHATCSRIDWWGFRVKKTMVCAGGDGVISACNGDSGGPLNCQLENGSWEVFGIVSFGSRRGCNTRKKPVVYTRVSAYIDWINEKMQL
Replicase polyprotein 1ab (Middle East respiratory syndrome-related coronavirus (isolate UnitedKingdom/H123990006/2012) (Betacoronavirus England 1) (Humancoronavirus EMC), UniProt K9N7C7), sequence (K9N7C7 3248-3553 limits assumed): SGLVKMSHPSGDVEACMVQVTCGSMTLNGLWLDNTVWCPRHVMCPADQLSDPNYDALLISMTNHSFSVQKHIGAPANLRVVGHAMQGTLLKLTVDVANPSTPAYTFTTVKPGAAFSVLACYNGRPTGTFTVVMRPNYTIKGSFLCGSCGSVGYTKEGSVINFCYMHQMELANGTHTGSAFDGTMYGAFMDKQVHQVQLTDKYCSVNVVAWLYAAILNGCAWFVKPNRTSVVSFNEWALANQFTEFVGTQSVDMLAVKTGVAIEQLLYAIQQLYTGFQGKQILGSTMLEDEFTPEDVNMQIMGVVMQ

| Molecule | IC50 [1] [µM] | inhibition [2] | inhibition [3] [%] | also measured |
| --- | --- | --- | --- | --- |
| O=C(O)c1ccc(SSc2ccc(C(=O)O)cn2)nc1 | > 10 | 8% |  |  |
| CN1CC[C@@]2(C)c3cc(O)ccc3N(C)[C@@H]12 | > 10 | 41% |  |  |
| O=C1C(Cl)=C(N2CCOCC2)C(=O)N1c1ccc(Cl)c(Cl)c1 | > 10 | 0% | 7.24 |  |
| CCC(=O)OCN1C(=O)C=CC1=O | > 10 | 0% |  |  |
| O=C1C=CC(=O)C2=C1C1c3ccccc3C2c2ccccc21 | > 10 | 45% |  |  |
| C=CC(=O)c1ccc2ccccc2c1 | > 10 | 26% |  |  |
| c1ccc2sc(SNC3CCCCC3)nc2c1 | > 10 | 0% |  |  |
| CCOC(=O)Cc1ccc(-c2ccccc2)cc1 | > 10 | 18% | -0.88 |  |
| COc1cccc(C(=O)CCN[C@@H](C)[C@H](O)c2ccccc2)c1 | > 10 | 19% |  |  |
| [O-][S+](c1ccccc1)c1ccc2nnnn2n1 (centres undefined) | 10.1 |  |  |  |
| Nc1cc2c3ccccc3ccc2c2ccccc12 | > 10 | 3% | -3.88 |  |
| O=C(/C=C/c1ccc(O)c2c1[C@@H](C(=O)O[C@H](Cc1ccc(O)c(O)c1)C(=O)O)[C@H](c1ccc(O)c(O)c1)O2)O[C@H](Cc1ccc(O)c(O)c1)C(=O)O |  |  |  | IC50 [4]: 3.42 µM |
| Oc1c(I)cc(I)c(O)c1I | > 10 | 0% |  |  |
| C[C@@H]1O[C@@H](Oc2c(-c3cc(O)c(O)c(O)c3)oc3cc(O)cc(O)c3c2=O)[C@@H](O)[C@H](O)[C@H]1O |  |  |  | IC50 [4]: 3.66 µM |
| Cc1ccccc1N(C)C(=O)c1ccc([S+]([O-])c2nccs2)c([N+](=O)[O-])c1 (centres undefined) | > 10 | 7% | 0.13 |  |
| C=C1C(=O)[C@]23[C@H](O)[C@H]1CC[C@@H]2[C@@]12CO[C@]3(O)C[C@@H]1C(C)(C)CC[C@@H]2O |  |  |  | IC50 [4]: 2.57 µM |
| CCc1ccc(/C=C/C(=O)Nc2ccc(C(C)=O)cc2)o1 |  |  |  | IC50 [4]: 4.95 µM |
| N#CSc1cc(SC#N)c(N)nc1N | 2.3 |  | 4.59 |  |
| Oc1ccc2ccccc2c1SSc1c(O)ccc2ccccc12 | > 10 | 6% |  |  |
| CN(C)CCNc1nc2cc(O)ccc2c2c1C(=O)c1ccccc1-2 | > 10 | 0% |  |  |
| Oc1cc2c(cc1O)C(c1ccccc1)CNCC2 (centres undefined) | > 10 | 5% | 8.97 |  |

| Molecule | IC50 [1] [µM] | inhibition [2] | inhibition [3] [%] | also measured |
| --- | --- | --- | --- | --- |
| O=[N+]([O-])c1cnc(Sc2nnc(O)n2-c2ccc3c(c2)OCCO3)s1 | 3.8 |  |  |  |
| Nc1nnc(Sc2ncc([N+](=O)[O-])s2)s1 | > 10 | 45% |  |  |
| CC[C@H](CO)Nc1nc(NCc2ccc(-c3ccccn3)cc2)c2ncn(C(C)C)c2n1 | > 10 | 4% |  |  |
| CC(C)N(CCC(=O)c1ccc2ccccc2c1)Cc1ccccc1 | 8.1 |  |  |  |
| CCCCCCNC(=O)n1cc(F)c(=O)[nH]c1=O |  |  | 14 |  |
| CCCCn1c(NC(=O)c2cccs2)c(C#N)c2nc3ccccc3nc21 |  |  | -3.7 |  |
| CCN1CCN(C(c2ccc(C(F)(F)F)cc2)c2ccc3cccnc3c2O)CC1 (centres undefined) |  |  | 3.72 |  |
| COC(=O)CC[C@H](NC(=O)[C@H](CC(=O)OC)NC(=O)OCc1ccccc1)C(=O)N[C@H](C(=O)N[C@@H](CC(=O)OC)C(=O)CF)C(C)C |  |  | 11.2 |  |
| Cc1cc(C)cc(N2C(=O)CC(Sc3nc[nH]n3)C2=O)c1 (centres undefined) |  |  | 2.86 |  |
| Cc1ccc(C)c(-n2sc3cc(F)ccc3c2=O)c1 |  |  | -0.52 |  |
| Cn1sc(=O)n(Cc2ccccc2)c1=O |  |  | 4.03 |  |
| Nc1ccc(O)c2ncccc12 |  |  | 4.98 |  |
| O=C(CC1Sc2ncnn2C1=O)Nc1ccc(Br)cc1 (centres undefined) |  |  | 8.42 |  |
| O=C(CCl)c1ccccc1 |  |  | 7.75 |  |
| O=[N+]([O-])c1ccc(Sc2cccc[n+]2[O-])c2nonc12 |  |  | 4.87 |  |
| Oc1cc2c(cc1C(c1ccc(C(F)(F)F)cc1)N1CCOCC1)OCO2 (centres undefined) |  |  | 7.04 |  |
| [O-][n+]1ccccc1S |  |  | 8.11 | inhibition ([2]; tested as the Zn salt or complex): 42% |
| c1ccc2sc(SSc3nc4ccccc4s3)nc2c1 |  |  | 5.04 |  |
| Sc1nc2ccccc2s1 [2-MERCAPTOBENZOTHIAZOLE] | > 10 | 0% |  |  |
| C[C@@H]1O[C@@H](O[C@@H]2[C@@H](O)[C@H](OCCc3ccc(O)c(O)c3)O[C@H](CO)[C@H]2OC(=O)/C=C/c2ccc(O)c(O)c2)[C@H](O)[C@H](O)[C@H]1O [ACETOSIDE] |  |  |  | IC50 [4]: 4.54 µM |
| CC(C)c1ccc2oc3nc(N)c(C(=O)O)cc3c(=O)c2c1 [AMLEXANOX] | > 10 | 0% | 4.03 |  |

| Molecule | IC50 [1] [µM] | inhibition [2] | inhibition [3] [%] | also measured |
| --- | --- | --- | --- | --- |
| O=C1c2c(O)cc(O)cc2O[C@H](c2cc(O)c(O)c(O)c2)[C@H]1O [AMPELOPSIN] | > 10 | 18% |  |  |
| O=c1cc(-c2ccc(O)cc2)oc2cc(O)cc(O)c12 [APIGENIN] | > 10 | 17% |  |  |
| CN1CCc2cccc3c2[C@H]1Cc1ccc(O)c(O)c1-3 [APOMORPHINE HYDROCHLORIDE] | > 10 | 6% |  |  |
| O=c1cc(-c2ccccc2)oc2cc(O)c(O)c(O)c12 [BAICALEIN] | > 10 | 47% |  |  |
| CC(C)(C)c1ccc(S(=O)(=O)/C=C/C#N)cc1 [BAY-11-7085] | > 10 | 0% |  |  |
| COc1nc2ccc(Br)cc2cc1[C@@H](c1ccccc1)[C@@](O)(CCN(C)C)c1cccc2ccccc12 [BEDAQUILINE] |  |  |  | IC50 [4]: 4.36 µM |
| NC(CO)C(=O)NNCc1ccc(O)c(O)c1O (centres undefined) [BENSERAZIDE HYDROCHLORIDE] | > 10 | 9% | 0.39 |  |
| CN(C)C(=S)SC(=S)N(C)C [BIS(DIMETHYLAMINETHIOCARBONYL)MONOSULFIDE] | > 10 | 0% |  |  |
| O=[N+]([O-])C(Br)(CO)CO [BRONOPOL] | > 10 | 14% |  |  |
| O=C1C2CC=CCC2C(=O)N1SC(Cl)(Cl)Cl (centres undefined) [CAPTAN] | > 10 | 5% |  |  |
| CNC(=O)ON(C(C)=O)C(=O)NC [CARACEMIDE] | > 10 | 8% |  |  |
| Oc1cc2c(cc1O)[C@H]1c3ccccc3CN[C@@H]1CC2 [DIHYDREXIDINE HYDROCHLORIDE] | > 10 | 19% |  |  |
| O=c1c2ccccc2[se]n1-c1ccccc1 [EBSELEN] | > 10 | 14% |  |  |
| O=C(O[C@@H]1Cc2c(O)cc(O)cc2O[C@@H]1c1cc(O)c(O)c(O)c1)c1cc(O)c(O)c(O)c1 [EPIGALOCATECHIN GALLATE] | > 10 | 10% and 16% | -0.5 |  |
| C[n+]1c2cc(N)ccc2cc2ccc(N)cc21 [EUFLAVINE] |  |  |  | IC50 [4]: 4.98 µM |
| O=C(c1cc(O)c(O)c(O)c1)c1ccc(O)c(O)c1O [EXIFONE] | > 10 | 0% |  |  |
| Oc1cc2c(cc1O)[C@@H]1c3ccc(O)c(O)c3OC[C@]1(O)C2 [HEMATOXYLIN] | > 10 | 5% |  |  |
| O=C(O)CCCCCCCCCCCCCCc1ccc(I)cc1 [IOCANLIDIC ACID] | > 10 | 0% |  |  |
| O=C(c1ccc(/C=C/c2n[nH]c3ccccc23)cc1)N1CCNCC1 [KW-2449] | 3.6 |  | 3.6 |  |
| C[C@H]1COc2c(N3CCN(C)CC3)c(F)cc3c(=O)c(C(=O)O)cn1c23 [LEVOFLOXACIN] | 7.6 |  | 1.29 |  |
| O=c1c(O)c(-c2cc(O)c(O)c(O)c2)oc2cc(O)cc(O)c12 [MYRICETIN] | > 10 | 5% | 3.78 |  |

| Molecule | IC50 [1] [µM] | inhibition [2] | inhibition [3] [%] | also measured |
| --- | --- | --- | --- | --- |
| CC(Cc1ccc(O)c(O)c1)C(C)Cc1ccc(O)c(O)c1 (centres undefined) [NORDIHYDROGUAIARETIC ACID] | > 10 | 0% |  |  |
| Oc1cc(O)cc(/C=C/c2ccc(O)c(O)c2)c1 [PICEATANNOL] | > 10 | 24% |  |  |
| CCC(C)SSc1ncc[nH]1 (centres undefined) [PX-12] | 7.6 |  |  |  |
| [O-][n+]1ccccc1S [PYRITHIONE] |  |  |  | IC50 [4]: 0.05 µM |
| COCCCOc1ccnc(C[S+]([O-])c2nc3ccccc3[nH]2)c1C (centres undefined) [RABEPRAZOLE SODIUM] | > 10 | 46% |  |  |
| O=C(/C=C/c1ccc(O)c(O)c1)O[C@H](Cc1ccc(O)c(O)c1)C(=O)O [ROSMARINIC ACID] | > 10 | 19% |  |  |
| C[n+]1cc2c3c(ccc2c2ccc4cc5c(cc4c21)OCO5)OCO3 [SANGUINARIUM CHLORIDE] | > 10 | 32% |  |  |
| Nc1ccc(S(=O)(=O)Nc2ncccn2)cc1 [SULFADIAZINE, SILVER] |  |  |  | IC50 ([1]; tested as the Ag salt or complex): > 10 µM |
| O=C(O)c1cc(O)c2c(c1)[C@H]([C@H]1c3cc(C(=O)O)cc(O)c3C(=O)c3c(O[C@@H]4O[C@H](CO)[C@@H](O)[C@H](O)[C@H]4O)cccc31)c1cccc(O[C@@H]3O[C@H](CO)[C@@H](O)[C@H](O)[C@H]3O)c1C2=O [Sennoside A] | > 10 | 42% | 2.66 |  |
| COc1ccc2[nH]c([S+]([O-])Cc3ncc(C)c(OC)c3C)nc2n1 (centres undefined) [TENATOPRAZOLE] | > 10 | 0% |  |  |
| CN(C)C(=S)SSC(=S)N(C)C [THIRAM] | > 10 | 48% |  |  |
| O=c1sn(-c2cccc3ccccc23)c(=O)n1Cc1ccccc1 [TIDEGLUSIB] | > 10 | 22% and 0% | 30.7 |  |
| COc1cc(C(=S)N2CCOCC2)ccc1O [VANITIOLIDE] | > 10 | 0% |  |  |
| ACRIFLAVINE HYDROCHLORIDE |  |  | 22 |  |
| Auranofin |  | 27% | 8.63 |  |
| CISPLATIN |  |  |  | IC50 [4]: 3.82 µM |
| MERBROMIN |  | 0% | 10.5 |  |
| PHENYLMERCURIC ACETATE |  | 4% | 8.59 |  |
| THIMEROSAL [listing 1 of 2 here] | > 10 |  |  |  |
| THIMEROSAL [listing 2 of 2 here] |  | 46% |  |  |
| hemin |  | 7% | 6.35 |  |
